Assay results from ChEMBL document CHEMBL1156854, “Design and synthesis of piperazine-indole p38 alpha MAP kinase inhibitors with improved pharmacokinetic profiles” (Bioorg Med Chem Lett, 2010).
Each block holds one compound with its values, some of them ahead of it.

How the values were obtained:
[1] = system: Liver microsomes; test: Metabolic stability in rat liver microsomes assessed as parent compound level; type: ADME, Microsome
[2] = Metabolic stability in dog liver microsomes assessed as parent compound level; type: ADME, Canis lupus familiaris, Microsome
[3] = Metabolic stability in monkey liver microsomes assessed as parent compound level; type: ADME, Macaca mulatta, Microsome; conditions: rhesus monkey
[4] = system: Liver microsomes; test: Metabolic stability in human liver microsomes assessed as parent compound level; type: ADME, Microsome
[5] = system: Liver microsomes; test: Metabolic stability in rat liver microsomes assessed as demethylated metabolite level; type: ADME, Microsome
[6] = Metabolic stability in monkey liver microsomes assessed as demethylated metabolite level; type: ADME, Macaca mulatta, Microsome; conditions: rhesus monkey
[7] = Clearance in po dosed rat; type: ADME, organism-based; conditions: in vivo
[8] = Oral bioavailability in rat; type: ADME, organism-based; conditions: in vivo
[9] = Oral bioavailability in dog; type: ADME, organism-based, Canis lupus familiaris; conditions: in vivo
[10] = Clearance in po dosed dog; type: ADME, organism-based, Canis lupus familiaris; conditions: in vivo
[11] = system: Rattus norvegicus; test: Volume of distribution in po dosed rat; type: ADME, organism-based; conditions: in vivo
[12] = system: Canis familiaris; test: Volume of distribution in po dosed dog; type: ADME, organism-based, Canis lupus familiaris; conditions: in vivo
[13] = Cmax in rat; type: ADME, organism-based; conditions: in vivo
[14] = Cmax in dog; type: ADME, organism-based, Canis lupus familiaris; conditions: in vivo
[15] = Cmax in monkey; type: ADME, organism-based, Macaca mulatta; conditions: rhesus monkey, in vivo
[16] = Tmax in rat; type: ADME, organism-based; conditions: in vivo
[17] = Tmax in dog; type: ADME, organism-based, Canis lupus familiaris; conditions: in vivo
[18] = Tmax in monkey; type: ADME, organism-based, Macaca mulatta; conditions: rhesus monkey, in vivo
[19] = AUC in iv dosed rat; type: ADME, organism-based; conditions: plasma
[20] = AUC in iv dosed dog; type: ADME, organism-based, Canis lupus familiaris; conditions: plasma
[21] = AUC in po dosed rat; type: ADME, organism-based; conditions: plasma
[22] = AUC in po dosed dog; type: ADME, organism-based, Canis lupus familiaris; conditions: plasma
[23] = AUC in po dosed monkey; type: ADME, organism-based, Macaca mulatta; conditions: rhesus monkey, plasma
[24] = Oral bioavailability in monkey; type: ADME, organism-based, Macaca mulatta; conditions: rhesus monkey, in vivo

- Stability [1]: 83.9%
- Stability [2]: 91.7%
- Stability [3]: 71.4%
- Stability [4]: 90.8%
- Stability [5]: 9.4%
- Stability [6]: 19.5%
- CL/F [7]: 20 mL/min/kg
- bioavailability [8]: 31%
- bioavailability [9]: 33%
- CL/F [10]: 3.33 mL/min/kg
- Vd [11]: 2.7 L/kg
- Vd [12]: 6.5 L/kg
- Cmax [13]: 367 ng/mL
- Cmax [14]: 899 ng/mL
- Cmax [15]: 360 ng/mL
- Tmax [16]: 1.2 h
- Tmax [17]: 1.3 h
- Tmax [18]: 2 h
- AUC [19]: 810 ng·h/mL
- AUC [20]: 3430 ng·h/mL
- AUC [21]: 1270 ng·h/mL
- AUC [22]: 5610 ng·h/mL
- AUC [23]: 1830 ng·h/mL
Structure (SMILES): C[C@@H]1CN(C(c2ccccc2)c2ccccc2)[C@@H](C)CN1C(=O)c1cc2c(C(=O)C(=O)N(C)C)cn(C)c2cc1Cl

- Stability [1]: 65.8%
- Stability [2]: 94.5%
- Stability [3]: 51.2%
- Stability [4]: 65.1%
- Stability [5]: 3.2%
- Stability [6]: 11.9%
- bioavailability [9]: 69%
- bioavailability [24]: 12%
Structure (SMILES): C[C@@H]1CN(Cc2ccc(F)cc2)[C@@H](C)CN1C(=O)c1cc2c(C(=O)C(=O)N(C)C)cn(C)c2cc1Cl [TALMAPIMOD]
